Earlier results, collected in patent US9808446B2, “Method for decreasing symptoms of alcohol consumption” (Alcobra Ltd., priority 2007, dated 2017).

Tests used:
[1] = not given; remark: listed apart in the source
frontoparietal cortex = details: guinea pigs, brain
[2] = long term data

mean half life in human serum (Lu Yuan et al.): about 0.8 hour
bioavailability (oral): 60-80%
oral absorption (oral): fast
half life in human serum (oral and intravenous, without appreciable differences): 40 to 60 min
SMILES: Cc1ncc(CO)c(CO)c1O.O=C1CC[C@@H](C(=O)O)N1 [Metadoxine, pyridoxol L,2-pyrrolidon-5 carboxylate]
glutathione depletion in hepatic tissues ([1]; animal studies): prevented
oxidative stress in hepatic tissues ([1]; animal studies): reduced
increased production of fatty acid esters in the liver ([1]; during chronic alcohol intake): inhibited
level of GABA and acetylcholine in the frontoparietal cortex (frontoparietal cortex): increased
safety for use by humans [2]: safe
